Test results reported in ChEMBL document CHEMBL5728406, “Thioether triazolopyridine and triazolopyrimidine inhibitors of myeloperoxidase” (2021).

How the values were obtained:
Myeloperoxidase [1] = molecular target: T1, Myeloperoxidase (Homo sapiens, UniProt P05164); test: MPO Chlorination (APF) Assay : MPO chlorination activity was measured in 100 mM KPi (pH 7.4) by utilizing the non-fluorescent reagent Aminophenyl fluorescein (APF, Invitrogen catalog #A36003). APF is cleaved by (—OCl) to yield the fluorescent compound fluorescein. […] Enzyme, inhibitor, and chloride were preincubated for ten minutes at rt.After the ten minute preincubation, 25 μL of an APF mixture containing […], 120 mM NaCl and 10 μM H2O2 was added to the plate using the internal dispensing system of a Hammatsu FDSS 6000. […] IC50 values for inhibitors were calculated by taking the slope of the linear portion of the kinetic measurement (20 seconds to ˜80-120 secs).IC50 values were calculated by determining the slope of the linear portion of the kinetic trace (180-540 secs), and using that calculated slope to determine % inhibition occurring at each concentration of inhibitor using the following equation:Y = A + B - A 1 + ( C / x ) Dwhere A=minimal Y value (activity level of inhibited sample), B=maximal Y value (activity level of uninhibited sample), C=Log IC50, D=Hill Slope, x=concentration of inhibitor.
T1 sequence (P05164 whole entry): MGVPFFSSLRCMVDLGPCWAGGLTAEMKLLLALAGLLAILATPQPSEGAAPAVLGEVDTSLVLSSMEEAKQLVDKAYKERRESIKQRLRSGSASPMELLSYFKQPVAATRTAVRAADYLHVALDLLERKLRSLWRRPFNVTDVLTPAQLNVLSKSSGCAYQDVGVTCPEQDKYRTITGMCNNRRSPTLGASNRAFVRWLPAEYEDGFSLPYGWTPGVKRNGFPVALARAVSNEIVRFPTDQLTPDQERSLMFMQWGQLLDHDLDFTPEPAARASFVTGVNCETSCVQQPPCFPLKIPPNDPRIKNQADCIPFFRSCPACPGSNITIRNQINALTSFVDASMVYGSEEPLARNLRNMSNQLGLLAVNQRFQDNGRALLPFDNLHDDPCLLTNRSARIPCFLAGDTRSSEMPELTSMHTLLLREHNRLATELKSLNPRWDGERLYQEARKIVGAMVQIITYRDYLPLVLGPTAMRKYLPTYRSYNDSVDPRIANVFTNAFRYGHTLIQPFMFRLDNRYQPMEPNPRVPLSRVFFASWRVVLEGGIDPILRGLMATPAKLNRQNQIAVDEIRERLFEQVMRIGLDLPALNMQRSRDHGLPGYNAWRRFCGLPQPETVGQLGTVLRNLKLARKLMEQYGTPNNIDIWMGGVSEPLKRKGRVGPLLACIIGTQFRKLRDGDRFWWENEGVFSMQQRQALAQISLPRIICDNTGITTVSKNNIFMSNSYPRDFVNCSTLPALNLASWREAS

Myeloperoxidase [2] = molecular target: T1, Myeloperoxidase; test: MPO Peroxidation (Amplex Red) Assay: MPO peroxidation activity was measured in 100 mM KPi (pH 7.4) by utilizing the non-fluorescent reagent Amplex Red (Invitrogen catalog #A12222) which can be oxidized to the highly fluorescent resorufin. Amplex Red is oxidized by the peroxidase action of MPO to resorufin. […] Enzyme and compound were preincubated for ten minutes at rt.After the ten minute preincubation, 25 μL of an Amplex Red mixture containing 200 μM Amplex Red and 10 mM H2O2 was added to the plate.

IC50 (Myeloperoxidase [2]) [µM]	SMILES	IC50 (Myeloperoxidase [1]) [µM]
	N#Cc1cccc(Br)c1CSc1cc(N)nc2[nH]nnc12	< 0.06
0.03	Cc1nn(C)c(C)c1CSc1cc(N)nc2[nH]nnc12	0.08
	Cn1cc(CSc2cc(N)nc3[nH]nnc23)c(C(F)(F)F)n1	< 0.06
	Cn1ncc(CSc2cc(N)nc3[nH]nnc23)c1C(F)(F)F	< 0.06
	CCc1nn(C)c(Cl)c1CSc1cc(N)nc2[nH]nnc12	< 0.06
	N#Cc1c(F)cccc1CSc1cc(N)nc2[nH]nnc12	< 0.06
	Cn1nc(C(F)(F)F)c(CSc2cc(N)nc3[nH]nnc23)c1F	< 0.06
	N#Cc1ccc(Cl)c(CSc2cc(N)nc3[nH]nnc23)c1	< 0.06
